The subject of one assay is NCI-H661. Nature of the assay: relative viability (nuclei count vs DMSO), 5 days (fraction); higher = more cells survive. As to conditions: first compound 6.325 µM. Summed up: (§1)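 Values are medians from duplicate plates. Each reflects relative viability, defined as the nuclei count of treated wells over that of vehicle wells. Lung cancer cell lines in 1536-well plates were pin-tool dosed one day after seeding with one drug alone or with a fixed anchor-drug dose plus five library-drug doses (not always all listed) in √10 steps, then fixed, stained and imaged at 4× after 5 days.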
Molecule `COCC1(CO)C(=O)C2CCN1CC2` (stereo not given) [PRIMA-1MET] + CS(=O)(=O)N1CCN(Cc2cc3nc(-c4cccc5[nH]ncc45)nc(N4CCOCC4)c3s2)CC1 [Pictilisib] (partner 1 µM) showed a relative viability of 0.447.

For the molecule `COCC1(CO)C(=O)C2CCN1CC2` (stereo not given) [PRIMA-1MET] + CCNC(=O)c1noc(-c2cc(C(C)C)c(O)cc2O)c1-c1ccc(CN2CCOCC2)cc1 [Luminespib] (partner 0.01 µM), the relative viability worked out at 0.929.

The molecule `COCC1(CO)C(=O)C2CCN1CC2` (stereo not given) [PRIMA-1MET] + CC(=O)c1c(C)c2cnc(Nc3ccc(N4CCNCC4)cn3)nc2n(C2CCCC2)c1=O [Palbociclib] (partner 0.5 µM) showed a relative viability of 0.423.

In turn, `COCC1(CO)C(=O)C2CCN1CC2` (stereo not given) [PRIMA-1MET] + Cc1nc(Nc2ncc(C(=O)Nc3c(C)cccc3Cl)s2)cc(N2CCN(CCO)CC2)n1 [Dasatinib] (partner 0.075 µM) showed a relative viability of 0.883.

The same assay, now with this note: first compound 20 µM.
Consider `COCC1(CO)C(=O)C2CCN1CC2` (stereo not given) [PRIMA-1MET] + CS(=O)(=O)N1CCN(Cc2cc3nc(-c4cccc5[nH]ncc45)nc(N4CCOCC4)c3s2)CC1 [Pictilisib] (partner 1 µM), for which the relative viability was 0.262.

`COCC1(CO)C(=O)C2CCN1CC2` (stereo not given) [PRIMA-1MET] + CCNC(=O)c1noc(-c2cc(C(C)C)c(O)cc2O)c1-c1ccc(CN2CCOCC2)cc1 [Luminespib] (partner 0.01 µM) showed a relative viability of 0.886.

Molecule `COCC1(CO)C(=O)C2CCN1CC2` (stereo not given) [PRIMA-1MET] + CC(=O)c1c(C)c2cnc(Nc3ccc(N4CCNCC4)cn3)nc2n(C2CCCC2)c1=O [Palbociclib] (partner 0.5 µM) had a relative viability of 0.446.

`COCC1(CO)C(=O)C2CCN1CC2` (stereo not given) [PRIMA-1MET] + Cc1nc(Nc2ncc(C(=O)Nc3c(C)cccc3Cl)s2)cc(N2CCN(CCO)CC2)n1 [Dasatinib] (partner 0.075 µM) came in with a relative viability of 0.796.

The next assay relates to NCI-H358. The description is as above. As to conditions: first compound 0.2 µM. The method in brief:
as §1
`COCC1(CO)C(=O)C2CCN1CC2` (stereo not given) [PRIMA-1MET] + CS(=O)(=O)N1CCN(Cc2cc3nc(-c4cccc5[nH]ncc45)nc(N4CCOCC4)c3s2)CC1 [Pictilisib] (partner 1 µM) had a relative viability of 0.392.

Molecule `COCC1(CO)C(=O)C2CCN1CC2` (stereo not given) [PRIMA-1MET] + CCNC(=O)c1noc(-c2cc(C(C)C)c(O)cc2O)c1-c1ccc(CN2CCOCC2)cc1 [Luminespib] (partner 0.01 µM) showed a relative viability of 0.314.

In turn, `COCC1(CO)C(=O)C2CCN1CC2` (stereo not given) [PRIMA-1MET] + CC(=O)c1c(C)c2cnc(Nc3ccc(N4CCNCC4)cn3)nc2n(C2CCCC2)c1=O [Palbociclib] (partner 0.5 µM) showed a relative viability of 0.148.

In the case of `COCC1(CO)C(=O)C2CCN1CC2` (stereo not given) [PRIMA-1MET] + Cc1nc(Nc2ncc(C(=O)Nc3c(C)cccc3Cl)s2)cc(N2CCN(CCO)CC2)n1 [Dasatinib] (partner 0.075 µM), the relative viability came to 0.186.

The same assay, now with this note: first compound 0.6325 µM.
Molecule `COCC1(CO)C(=O)C2CCN1CC2` (stereo not given) [PRIMA-1MET] + CS(=O)(=O)N1CCN(Cc2cc3nc(-c4cccc5[nH]ncc45)nc(N4CCOCC4)c3s2)CC1 [Pictilisib] (partner 1 µM) yielded a relative viability of 0.318.

For the molecule `COCC1(CO)C(=O)C2CCN1CC2` (stereo not given) [PRIMA-1MET] + CCNC(=O)c1noc(-c2cc(C(C)C)c(O)cc2O)c1-c1ccc(CN2CCOCC2)cc1 [Luminespib] (partner 0.01 µM), the relative viability turned out to be 0.312.

As to `COCC1(CO)C(=O)C2CCN1CC2` (stereo not given) [PRIMA-1MET] + CC(=O)c1c(C)c2cnc(Nc3ccc(N4CCNCC4)cn3)nc2n(C2CCCC2)c1=O [Palbociclib] (partner 0.5 µM), the relative viability is 0.154.

Staying with this assay, now noted: first compound 2 µM.
With `COCC1(CO)C(=O)C2CCN1CC2` (stereo not given) [PRIMA-1MET] + CCNC(=O)c1noc(-c2cc(C(C)C)c(O)cc2O)c1-c1ccc(CN2CCOCC2)cc1 [Luminespib] (partner 0.01 µM), the relative viability amounted to 0.354.

`COCC1(CO)C(=O)C2CCN1CC2` (stereo not given) [PRIMA-1MET] + CC(=O)c1c(C)c2cnc(Nc3ccc(N4CCNCC4)cn3)nc2n(C2CCCC2)c1=O [Palbociclib] (partner 0.5 µM) registered a relative viability of 0.115.

`COCC1(CO)C(=O)C2CCN1CC2` (stereo not given) [PRIMA-1MET] + Cc1nc(Nc2ncc(C(=O)Nc3c(C)cccc3Cl)s2)cc(N2CCN(CCO)CC2)n1 [Dasatinib] (partner 0.075 µM) gave a relative viability of 0.174.

The same assay, now with this note: first compound 6.325 µM.
On to `COCC1(CO)C(=O)C2CCN1CC2` (stereo not given) [PRIMA-1MET] + CS(=O)(=O)N1CCN(Cc2cc3nc(-c4cccc5[nH]ncc45)nc(N4CCOCC4)c3s2)CC1 [Pictilisib] (partner 1 µM), for which the relative viability was 0.319.

Take `COCC1(CO)C(=O)C2CCN1CC2` (stereo not given) [PRIMA-1MET] + CCNC(=O)c1noc(-c2cc(C(C)C)c(O)cc2O)c1-c1ccc(CN2CCOCC2)cc1 [Luminespib] (partner 0.01 µM): the relative viability amounted to 0.416.

Regarding `COCC1(CO)C(=O)C2CCN1CC2` (stereo not given) [PRIMA-1MET] + CC(=O)c1c(C)c2cnc(Nc3ccc(N4CCNCC4)cn3)nc2n(C2CCCC2)c1=O [Palbociclib] (partner 0.5 µM), the relative viability was found to be 0.137.

The molecule `COCC1(CO)C(=O)C2CCN1CC2` (stereo not given) [PRIMA-1MET] + Cc1nc(Nc2ncc(C(=O)Nc3c(C)cccc3Cl)s2)cc(N2CCN(CCO)CC2)n1 [Dasatinib] (partner 0.075 µM) displayed a relative viability of 0.178.

Still in this assay, the particulars now being: first compound 20 µM.
The molecule `COCC1(CO)C(=O)C2CCN1CC2` (stereo not given) [PRIMA-1MET] + CS(=O)(=O)N1CCN(Cc2cc3nc(-c4cccc5[nH]ncc45)nc(N4CCOCC4)c3s2)CC1 [Pictilisib] (partner 1 µM) registered a relative viability of 0.0332.

In turn, `COCC1(CO)C(=O)C2CCN1CC2` (stereo not given) [PRIMA-1MET] + CCNC(=O)c1noc(-c2cc(C(C)C)c(O)cc2O)c1-c1ccc(CN2CCOCC2)cc1 [Luminespib] (partner 0.01 µM) yielded a relative viability of 0.287.

On to `COCC1(CO)C(=O)C2CCN1CC2` (stereo not given) [PRIMA-1MET] + CC(=O)c1c(C)c2cnc(Nc3ccc(N4CCNCC4)cn3)nc2n(C2CCCC2)c1=O [Palbociclib] (partner 0.5 µM), for which the relative viability came out at 0.112.

Values taken from the supplement of paper PMC10307832.
